A value given as a limit tells only on which side of the number the result lay.

The test concerns S. typhi GFP reporter counter-screen, fluorescence, 4 h. Briefly: inhibitors in S. typhi counter-screen strain, dose response, counter-screen for PhoP regulon inhibitor project, fluorescence, 4 h (AID 2384). Background: The purpose of a counterscreen is to sort out artefacts and off-target activity.
By IC50 is commonly meant the concentration that gives 50% inhibition. With `C=CCNc1ncnc2c1[nH]c1ccc(Cl)cc12`, the IC50 is 37.2 µM.

As for `O=C(N/N=C/c1ccc([N+](=O)[O-])o1)C(O)c1ccccc1` (stereo not drawn), the IC50 was 37.4 µM. The value for `OCCN1CCN(C2CCC(c3ccc(F)cc3)c3ccc(F)cc32)CC1` (stereo not drawn) was 15.9 µM; that for `CO[C@@]1(NC(=O)Cc2cccs2)C(=O)N2C(C(=O)O)=C(COC(N)=O)CS[C@@H]21` was 7.08 µM. With `CN1CCC(OC(=O)c2cccc(Br)c2)CC1` the figure was 55.9 µM; with `O=C(NC(CO)Cc1ccc([N+](=O)[O-])cc1)C(Cl)Cl` (stereo not drawn), 3.82 µM. Consider `CC[n+]1c(/C=C/N(C)c2ccccc2)n(-c2ccccc2)c2ccc(-c3nc4ccccc4s3)cc21`, for which the half-inhibitory concentration (IC50) is 9.23 µM. With `CCOc1ccc(Nc2nc(NCC3CCCO3)c3ccccc3n2)cc1` (stereo not drawn) the figure was 19.6 µM; with `CNCC[C@H](Oc1cccc2ccccc12)c1cccs1`, 48.1 µM; with `CCCCc1c(O)nc(SCC(=O)Nc2ccc3c(c2)CCC3)[nH]c1=O`, 112 µM. The value for `Cc1ncc(CC(=O)n2cc(C(=O)c3cc(Cl)ccc3O)cn2)s1` was 82.9 µM. With `COc1ccc(Nc2c3c(nc4ccccc24)CCC3)cc1` the figure was 113 µM; with `O=C(O)c1cn(C2CC2)c2cc(N3CCN(S(=O)(=O)c4ccc5c(c4)OCCO5)CC3)c(F)cc2c1=O`, 15.9 µM. With `CCCCc1ccc2[nH]cc(CCN)c2c1`, the IC50 is 77 µM.

`c1ccc2c(c1)CCc1ccccc1C2=C1CCNCC1`: the IC50 was 58.2 µM.

Take `CCCCCCC[N+](CC)(CC)CCCCc1ccc(Cl)cc1`: the IC50 was 37.3 µM. With `Cc1ccc(OCC(=O)N/N=C\c2c(C)[nH]n(-c3ccccc3)c2=O)c([N+](=O)[O-])c1` the figure was 42.6 µM; with `CCC(C)NC(=O)c1cn(CC)c2cc(N3CCN(C)CC3)c(F)cc2c1=O` (stereo not drawn), 38.2 µM; with `CCNC(=O)Oc1ccc[nH]c1=O`, 53.8 µM. `CCCCCCCCNc1ncnc2ccccc12`: the IC50 is 33.2 µM. The value for `CCn1nc(C(=O)O)c(=O)c2cc3c(cc21)OCO3` was 84.1 µM; that for `O=C(CCN1CCN(c2ccccc2F)CC1)c1ccc(Br)cc1` was 37.2 µM.

Turning to `C#CCOCCOCCOCCNc1nc(N2CCN(C(=O)CCCCCCCCCCNC(=O)Cn3cc(CCCCCN)nn3)CC2)nc(N2CCN(C(=O)CCCCCCCCCCNC(=O)[C@H]([C@@H](C)CC)n3cc(CCCCN=C(N)N)nn3)CC2)n1`, the half-maximal inhibitory concentration (IC50) is 38.2 µM. Take `CCCCCNc1nc(N2CCCC2)c2c(c1C#N)CCN(C)C2`: the half-inhibitory concentration (IC50) was 36.3 µM. The value for `CNCCCC1c2ccccc2C=Cc2ccccc21` was 67.1 µM. The value for `Nc1nc2ccccc2n1Cc1ccc(Cl)c(Cl)c1` was 74.7 µM; that for `COc1cc([N+](=O)[O-])cc(/C=N/NC(=O)c2cccnc2)c1O` was 76.1 µM. On to `Cc1cc(C)c2nc(C)cc(N/N=C/c3ccc(O)cc3)c2c1`, for which the concentration for half-maximal inhibition (IC50) is 57.9 µM.

For `CCCCCCCCCCCCCCCC[N+](C)(C)CC`, the IC50 is 19.3 µM. The value for `CO/N=C(/C(=O)N[C@@H]1C(=O)N2C(C(=O)O)=CCS[C@H]12)c1cnc(N)s1` was 27 µM; that for `NC(=O)SCC(=O)Nc1cccc(Cl)c1` was 60.9 µM. As to `CC1(C)N=C(N)NC(Nc2ccc(Br)cc2)=N1`, the IC50 is 109 µM. The value for `CC1CCc2c(N3CCC(O)CC3)c(F)cc3c(=O)c(C(=O)O)cn1c23` (stereo not drawn) was 18.9 µM. Turning to `CN1CCC(=C2c3ccccc3C=Cc3ccccc32)CC1`, the half-maximal inhibitory concentration (IC50) is 77.5 µM. The value for `CN(C)CCCN1c2ccccc2CCc2ccc(Cl)cc21` was 70.5 µM; that for `N=c1c2c(n(Cc3ccc(Cl)c(Cl)c3)c3c1CCC3)CCCC2` was 31.1 µM. The value for `c1cc2c(cc1C1CCCCC1)c1c3n2CCN=C3CCC1` was 37.9 µM; that for `CC(=O)Nc1ccc(S(=O)(=O)NNc2cccc(C)c2)cc1` was 27.5 µM; that for `CN(C)CCNc1oc(COc2ccc(-c3ccccc3)cc2)nc1C#N` was 39 µM. With `C#CCOCCOCCOCCNc1nc(N2CCN(C(=O)[C@H]([C@@H](C)CC)n3cc([C@@H](N)CO)nn3)CC2)nc(N2CCN(C(=O)[C@H](Cc3cc4ccccc4[nH]3)n3cc([C@@H](N)Cc4ccc(O)cc4)nn3)CC2)n1` the figure was 49.7 µM. For the molecule `C#CCOCCOCCOCCNc1nc(N2CCN(C(=O)CCCCCCCCCCNC(=O)[C@H](CCCCN)n3cc(C[C@@H](C)CC)nn3)CC2)nc(N2CCN(C(=O)CCCCCCCCCCNC(=O)[C@H](CCCN=C(N)N)n3cc(C[C@@H](C)CC)nn3)CC2)n1`, the IC50 was 103 µM. With `COc1cccc(NC2=NC3(CCCCC3)N=C(N)N2)c1` the figure was 148 µM; with `CN(CCOc1ccc(Cl)cc1)CC(O)c1ccccc1` (stereo not drawn), 126 µM; with `CCCCOc1ccc(Br)cc1CSC(=N)N`, 14.2 µM.

For the molecule `COc1ccccc1CNCCc1ccc(F)cc1`, the IC50 is 33 µM. With `O=C(CSc1ccccn1)N/N=C/c1cc([N+](=O)[O-])ccc1O` the figure was 40.4 µM; with `Cc1ccc(OCc2nnc(NC(=O)c3cccnc3)s2)cc1`, 52 µM.

Consider `O=C(N/N=C/c1cc([N+](=O)[O-])ccc1O)C(O)(c1ccccc1)c1ccccc1`, for which the IC50 was 54.9 µM. With `O=C(/C=C/c1ccccc1)NC(=S)NNC(=O)c1cnccn1` the figure was 20.9 µM; with `C#CCOCCOCCOCCNc1nc(N2CCN(C(=O)[C@H](Cc3cc4ccccc4[nH]3)n3cc([C@@H](N)C(C)CC)nn3)CC2)nc(N2CCN(C(=O)[C@H](Cc3cc4ccccc4[nH]3)n3cc([C@@H](N)CC(C)C)nn3)CC2)n1` (stereo partly drawn), 24.1 µM; with `CCCCCCCSc1cc(OC)c(CCN(C)C)cc1OC`, 30.7 µM. The value for `O=C(Nc1nnc(-c2cccs2)o1)c1cccc(C(F)(F)F)c1` was 26.4 µM; that for `CCOC(=O)C1=C(C(C)=O)C(c2cccnc2)C(C#N)=C(N)O1` (stereo not drawn) was 57.5 µM. With `NC1CCN(c2c(F)cc3c(=O)c(C(=O)O)cn(C4CC4)c3c2Cl)C1` (stereo not drawn) the figure was less than 0.55 µM. `c1ccc(-c2nc3ccccc3[nH]2)cc1`: the IC50 is 93.5 µM. The value for `CCCOc1ccc(C(=O)NNC(=S)NC(C)=O)cc1` was 39.2 µM.

As for `COc1ccc(C2NCCc3c2[nH]c2ccccc32)cc1COc1ccc(F)cc1` (stereo not drawn), the concentration for half-maximal inhibition (IC50) is 35.1 µM. On to `Cc1cccc(Nc2c3c(nc4ccccc24)CCC3)c1`, for which the IC50 was 60.3 µM. The value for `O=C(N/N=C/c1cc(Cl)ccc1O)c1ccncc1` was 17.3 µM; that for `OC1(c2ccc(Cl)cc2)CCN(Cc2c[nH]c3ccccc23)CC1` was 29.8 µM; that for `Oc1ccc(C[C@H]2CNCCN2CCCCC2CCCCC2)cc1` was 70.5 µM. With `Cc1ccc2c(c1)c1c(n2CC(O)CNC2CCCCC2)CCCC1` (stereo not drawn) the figure was 87.1 µM; with `Cc1cc2nc(C3CCN(CC4COc5ccccc5O4)CC3)[nH]c2cc1C` (stereo not drawn), 19.5 µM.

For `CC(C)C1N=C(c2ccc3c(c2)OCO3)CC(c2ccccc2O)N1` (stereo not drawn), the IC50 was 117 µM. The value for `CNC(CC(=O)c1ccc([N+](=O)[O-])cc1)C(Cl)(Cl)Cl` (stereo not drawn) was 82.7 µM. With `COc1cccc(CNCCc2c[nH]c3ccccc23)c1OCc1ccccc1` the figure was 89.1 µM.

With `Cc1cc(N2CCC(C)CC2)nc(NCc2ccccc2)n1`, the IC50 was 51.8 µM. Regarding `O=C(N/N=C/c1ccccn1)c1cccs1`, the IC50 is 65.5 µM. With `O=C(CCN1CCN(c2ccccc2)CC1)N/N=C/c1ccc([N+](=O)[O-])o1` the figure was 131 µM.

As for `NC1=NC2=C(CCCC2)C2(CCCCC2)S1`, the IC50 was 63.8 µM. With `Cc1ccc(-c2csc(NC(=O)C[n+]3cc(-c4ccccc4)n4c3CCC4)n2)cc1` the figure was 19.3 µM; with `CO[C@H]1C=CO[C@@]2(C)Oc3c(C)c(O)c4c(O)c(c5c(c4c3C2=O)NC2(CCN(CC(C)C)CC2)N=5)=NC(=O)C(C)=CC=C[C@H](C)[C@H](O)[C@@H](C)[C@@H](O)[C@@H](C)[C@H](OC(C)=O)[C@@H]1C`, 2.19 µM. With `O=C(Nc1cccc(Cl)c1)Nc1nccs1` the figure was 57.3 µM; with `CCOC(=O)c1ccccc1-n1c(C)cc(C2N=C(N)Nc3nc4ccccc4n32)c1C` (stereo not drawn), 39.4 µM. Consider `CCCCCCCCCCCCCCCC[n+]1ccc(C(N)=O)cc1`, for which the IC50 was 9.85 µM.

In the case of `Cc1ccc(NC(=O)c2ccc([N+](=O)[O-])o2)c(C)c1`, the half-inhibitory concentration (IC50) was 67.9 µM.

In the case of `CN(C)CCCNC(=S)NCC(c1ccc(Cl)cc1Cl)c1c[nH]c2ccccc12` (stereo not drawn), the IC50 was 26.4 µM. With `O=c1c2ccccc2nc(N/N=C/c2c(O)ccc3ccccc23)n1O` the figure was 16.2 µM; with `Cc1ccc(C(=O)N/C(=C\c2ccc(-c3ccc(Cl)cc3)o2)C(=O)NCCCN(C)C)cc1`, 36.4 µM. The value for `C[C@H]1c2cccc(O)c2C(O)=C2C(=O)[C@]3(O)C(O)=C(C(N)=O)C(=O)[C@@H](N(C)C)C3[C@@H](O)C21` (stereo partly drawn) was 0.68 µM. With `C#CCOCCOCCOCCNc1nc(N2CCN(C(=O)CCCCCCCCCCNC(=O)Cn3cc(CCCCCN)nn3)CC2)nc(N2CCN(C(=O)CCCCCCCCCCNC(=O)[C@H]([C@@H](C)CC)n3cc(CCCCCN)nn3)CC2)n1`, the IC50 was 38.8 µM. The value for `O=C(N/N=C/c1cc([N+](=O)[O-])ccc1O)c1cccc2cc[nH]c12` was 18.5 µM.

Take `c1ccc(Nc2nc(NCC3CCCO3)c3ccccc3n2)cc1` (stereo not drawn): the half-inhibitory concentration (IC50) was 26 µM.

With `Cc1cc(OCCCCCNCCO)cc(C)c1Cl`, the IC50 is 107 µM. The value for `COc1ccccc1NC(=O)CN1CCC(c2nc3ccc(C)cc3[nH]2)CC1` was 143 µM; that for `O=c1[nH]cc(F)c(=O)[nH]1` was 2.53 µM. With `O=C(CCC(=O)Nc1ccc(Cl)cc1Cl)N/N=C/c1ccc([N+](=O)[O-])o1` the figure was 29 µM. The value for `Cc1ccc(-n2c(-c3ccc(Br)cc3)c[n+]3c2CCc2ccc4cccnc4c2-3)cc1` was 40.6 µM; that for `CNCc1c(OCc2ccccc2F)ccc2ccccc12` was 37.2 µM. Consider `CO[C@H]1/C=C/O[C@@]2(C)Oc3c(C)c(O)c4c(O)c(c(C=NN5CCN(C)CC5)c(O)c4c3C2=O)NC(=O)/C(C)=C\C=C\[C@H](C)[C@H](O)[C@@H](C)[C@@H](O)[C@@H](C)[C@H](OC(C)=O)[C@@H]1C`, for which the IC50 was 8.94 µM. The value for `CCCCCCCCCCOC(=O)C[N+](C)(C)CC1CCCCC1O` (stereo not drawn) was 37.6 µM; that for `O=C(Nc1cccc([N+](=O)[O-])c1)Nc1cccs1` was 38.9 µM. The value for `CC(Oc1ccc(Br)cc1)c1nc2c3ccccc3nc(=S)n2[nH]1` (stereo not drawn) was 139 µM.

The values above are taken from PubChem BioAssay AID2384 (Southern Research Specialized Biocontainment Screening …, 2010).
